Measured values taken from US11452731B2, “Method of treating and preventing loss of cognition” (ENDORECHERCHE, INC., priority 2009, dated 2022).

Assay: Clinical trial ERC-205: DHEA 50 mg daily versus placebo on hot flushes in postmenopausal women (Example 10)
Assay type: in vivo
Settings: 50 mg, strata 50 to 70 hot flushes per week at screening
Experimental: Postmenopausal women experiencing moderate or severe hot flushes per week (as determined by a two week diary) were randomized to receive a daily dose of either placebo or 50 mg DHEA. Fifty evaluable participants (25 patients per arm) were treated for four months with a daily assessment of hot flushes recorded in a diary completed by each participant.
Postmenopausal women aged 40 to 70 years with moderate or severe hot flushes per week, as confirmed by a two-week screening hot flush diary were enrolled after signing informed consent. The protocol was approved by the Institutional Review Board (IRB) of Le Centre Hospitalier de l'Université Laval and by Health Canada.
The primary endpoint was the change from Baseline in the weekly frequency of moderate to severe hot flushes at Week 16, after four months of treatment. The objectives also included the change from Baseline in the weekly frequency of all hot flushes and the change from Baseline in the weekly weighted severity score.
The response endpoint is the patient's paper diary which was filled in daily to specify the number and type of hot flushes as follows:
The hot flush diary began as a Screening diary for two weeks prior to randomization whereby patients had to complete the diary daily, recording the number and severity of hot flushes. The patients had to record an average of 50 or more moderate or severe hot flushes per week over the two-week period to be eligible (i.e., at least 100 hot flushes documented on the two week Screening diary).
Once randomized, the patient completed eight, two-week hot flush diaries upon beginning study medication. The diaries had to be filled out on a daily basis. The first diary was completed over the first two weeks and be returned on the two week visit. The second two-week diary was completed over the next two weeks of the first four week treatment period and was returned at the four week visit. At 4, 8, 12 and 16 week visits, two two-week diaries for hot flushes were collected.

[1] = Screening (mean of 2 w), baseline

Structure (SMILES): C[C@]12CC[C@H](O)CC1=CC[C@@H]1[C@@H]2CC[C@]2(C)C(=O)CC[C@@H]12 [DHEA, dehydroepiandrosterone]
- NUMBER OF ALL HOT FLUSHES PER WEEK (MEAN) [1]: 63.7
- NUMBER OF MODERATE TO SEVERE HOT FLUSHES PER WEEK (MEAN) [1]: 56.7
- WEIGHTED SEVERITY SCORE OF HOT FLUSHES PER WEEK (MEAN) [1]: 144.3
- NUMBER OF ALL HOT FLUSHES PER WEEK (MEAN) (Week 1): 60.8
- NUMBER OF MODERATE TO SEVERE HOT FLUSHES PER WEEK (MEAN) (Week 1): 54.2
- WEIGHTED SEVERITY SCORE OF HOT FLUSHES PER WEEK (MEAN) (Week 1): 141.0
- NUMBER OF ALL HOT FLUSHES PER WEEK (MEAN) (Week 2): 55.3
- NUMBER OF MODERATE TO SEVERE HOT FLUSHES PER WEEK (MEAN) (Week 2): 49.0
- WEIGHTED SEVERITY SCORE OF HOT FLUSHES PER WEEK (MEAN) (Week 2): 127.1
- NUMBER OF ALL HOT FLUSHES PER WEEK (MEAN) (Week 3): 52.3
- NUMBER OF MODERATE TO SEVERE HOT FLUSHES PER WEEK (MEAN) (Week 3): 46.5
- WEIGHTED SEVERITY SCORE OF HOT FLUSHES PER WEEK (MEAN) (Week 3): 118.9
- NUMBER OF ALL HOT FLUSHES PER WEEK (MEAN) (Week 4): 49.4
- NUMBER OF MODERATE TO SEVERE HOT FLUSHES PER WEEK (MEAN) (Week 4): 44.0
- WEIGHTED SEVERITY SCORE OF HOT FLUSHES PER WEEK (MEAN) (Week 4): 111.6
- NUMBER OF ALL HOT FLUSHES PER WEEK (MEAN) (Week 5): 42.7
- NUMBER OF MODERATE TO SEVERE HOT FLUSHES PER WEEK (MEAN) (Week 5): 38.3
- WEIGHTED SEVERITY SCORE OF HOT FLUSHES PER WEEK (MEAN) (Week 5): 97.8
- NUMBER OF ALL HOT FLUSHES PER WEEK (MEAN) (Week 6): 43.7
- NUMBER OF MODERATE TO SEVERE HOT FLUSHES PER WEEK (MEAN) (Week 6): 39.8
- WEIGHTED SEVERITY SCORE OF HOT FLUSHES PER WEEK (MEAN) (Week 6): 99.0
- NUMBER OF ALL HOT FLUSHES PER WEEK (MEAN) (Week 7): 39.2
- NUMBER OF MODERATE TO SEVERE HOT FLUSHES PER WEEK (MEAN) (Week 7): 34.7
- WEIGHTED SEVERITY SCORE OF HOT FLUSHES PER WEEK (MEAN) (Week 7): 88.3
- NUMBER OF ALL HOT FLUSHES PER WEEK (MEAN) (Week 8): 41.8
- NUMBER OF MODERATE TO SEVERE HOT FLUSHES PER WEEK (MEAN) (Week 8): 38.1
- WEIGHTED SEVERITY SCORE OF HOT FLUSHES PER WEEK (MEAN) (Week 8): 95.8
- NUMBER OF ALL HOT FLUSHES PER WEEK (MEAN) (Week 9): 42.4
- NUMBER OF MODERATE TO SEVERE HOT FLUSHES PER WEEK (MEAN) (Week 9): 38.5
- WEIGHTED SEVERITY SCORE OF HOT FLUSHES PER WEEK (MEAN) (Week 9): 96.0
- NUMBER OF ALL HOT FLUSHES PER WEEK (MEAN) (Week 10): 40.5
- NUMBER OF MODERATE TO SEVERE HOT FLUSHES PER WEEK (MEAN) (Week 10): 36.6
- WEIGHTED SEVERITY SCORE OF HOT FLUSHES PER WEEK (MEAN) (Week 10): 92.7
- NUMBER OF ALL HOT FLUSHES PER WEEK (MEAN) (Week 11): 39.5
- NUMBER OF MODERATE TO SEVERE HOT FLUSHES PER WEEK (MEAN) (Week 11): 35.6
- WEIGHTED SEVERITY SCORE OF HOT FLUSHES PER WEEK (MEAN) (Week 11): 89.8
- NUMBER OF ALL HOT FLUSHES PER WEEK (MEAN) (Week 12): 39.7
- NUMBER OF MODERATE TO SEVERE HOT FLUSHES PER WEEK (MEAN) (Week 12): 35.8
- WEIGHTED SEVERITY SCORE OF HOT FLUSHES PER WEEK (MEAN) (Week 12): 88.5
- NUMBER OF ALL HOT FLUSHES PER WEEK (MEAN) (Week 13): 36.2
- NUMBER OF MODERATE TO SEVERE HOT FLUSHES PER WEEK (MEAN) (Week 13): 32.8
- WEIGHTED SEVERITY SCORE OF HOT FLUSHES PER WEEK (MEAN) (Week 13): 81.4
- NUMBER OF ALL HOT FLUSHES PER WEEK (MEAN) (Week 14): 37.8
- NUMBER OF MODERATE TO SEVERE HOT FLUSHES PER WEEK (MEAN) (Week 14): 34.2
- WEIGHTED SEVERITY SCORE OF HOT FLUSHES PER WEEK (MEAN) (Week 14): 87.0
- NUMBER OF ALL HOT FLUSHES PER WEEK (MEAN) (Week 15): 36.5
- NUMBER OF MODERATE TO SEVERE HOT FLUSHES PER WEEK (MEAN) (Week 15): 33.7
